One block for each molecule: values may come before it.
Columns and labels:
[1] = molecular target: T1, ATP-binding cassette sub-family C member 2 (Homo sapiens, UniProt Q92887); assay: TP_TRANSPORTER: inhibition of LTC4 uptake in membrane vesicles from MRP2-expressing LLC PK1 cells; format: functional, cell membranes, Membrane vesicle
[2] = molecular target: T1, ATP-binding cassette sub-family C member 2; assay: TP_TRANSPORTER: increase in Vincristine intracellular accumulation (Vincristine: 1 uM, PAK-104P: 10 uM) in MRP2-expressing LLC PK1 cells; format: functional, cell-based; conditions: pig, llc-pk1, 10 µM
[3] = molecular target: T1, ATP-binding cassette sub-family C member 2; assay: (§1) TP_TRANSPORTER: uptake in membrane vesicles from MRP2-expressing LLC PK1 cells; format: functional, cell membranes, Membrane vesicle; conditions: pig
[4] = molecular target: T1, ATP-binding cassette sub-family C member 2; assay: TP_TRANSPORTER: increase in Vincristine intracellular accumulation (Vincristine: 1 uM, MK571: 10 uM) in MRP2-expressing LLC PK1 cells; format: functional, cell-based; conditions: pig, llc-pk1, 10 µM
[5] = molecular target: T1, ATP-binding cassette sub-family C member 2; assay: TP_TRANSPORTER: increase in Vincristine intracellular accumulation (Vincristine: 1 uM, PSC-833: 10 uM) in MRP2-expressing LLC PK1 cells; format: functional, cell-based; conditions: pig, llc-pk1, 10 µM
[6] = molecular target: T1, ATP-binding cassette sub-family C member 2; assay: TP_TRANSPORTER: intracellular accumulation in MRP2-expressing LLC PK1 cells; format: functional, cell-based; conditions: pig
[7] = substrate: CCCCC/C=C\C\C=C/C=C/C=C/[C@@H](SC[C@@H](NC(=O)CC[C@H](N)C(=O)O)C(=O)NCC(=O)O)[C@@H](O)CCCC(=O)O; assay: as §1; format: functional, cell membranes, Membrane vesicle

Ki [1]: 3.7 µM
Activity [2]: inhibitor [+]
Molecule: Cc1nc(C)c(P2(=O)O[C@H](C)C[C@@H](C)O2)c(-c2cccc([N+](=O)[O-])c2)c1C(=O)OCCN1CCN(C(c2ccccc2)c2ccccc2)CC1 (some centres undefined)

Molecule: N[C@@H](CCC(=O)N[C@H](CSc1ccc([N+](=O)[O-])cc1[N+](=O)[O-])C(=O)NCC(=O)O)C(=O)O
Activity [3]: substrate [+]

Molecule: CN(C)C(=O)CCSC(SCCC(=O)O)c1cccc(/C=C/c2ccc3ccc(Cl)cc3n2)c1 (centres undefined) [MK-571]
Activity [4]: inhibitor [+]
Ki [1]: 13.1 µM

Molecule: C/C=C/C[C@@H](C)C(=O)[C@H]1C(=O)N[C@@H](C(C)C)C(=O)N(C)CC(=O)N(C)[C@@H](CC(C)C)C(=O)N[C@@H](C(C)C)C(=O)N(C)[C@@H](CC(C)C)C(=O)N[C@@H](C)C(=O)N[C@H](C)C(=O)N(C)[C@@H](CC(C)C)C(=O)N(C)[C@@H](CC(C)C)C(=O)N(C)[C@@H](C(C)C)C(=O)N1C [VALSPODAR]
Ki [1]: 28.9 µM
Activity [5]: inhibitor [+]

Activity [6]: substrate [+]
Molecule: CC[C@]1(O)C[C@H]2CN(CCc3c([nH]c4ccccc34)[C@@](C(=O)OC)(c3cc4c(cc3OC)N(C=O)[C@H]3[C@@](O)(C(=O)OC)[C@H](OC(C)=O)[C@]5(CC)C=CCN6CC[C@]43[C@@H]65)C2)C1 [VINCRISTINE]

B1: ATP-binding cassette sub-family C member 2 (Homo sapiens) (protein)
chain: MLEKFCNSTFWNSSFLDSPEADLPLCFEQTVLVWIPLGYLWLLAPWQLLHVYKSRTKRSSTTKLYLAKQVFVGFLLILAAIELALVLTEDSGQATVPAVRYTNPSLYLGTWLLVLLIQYSRQWCVQKNSWFLSLFWILSILCGTFQFQTLIRTLLQGDNSNLAYSCLFFISYGFQILILIFSAFSENNESSNNPSSIASFLSSITYSWYDSIILKGYKRPLTLEDVWEVDEEMKTKTLVSKFETHMKRELQKARRALQRRQEKSSQQNSGARLPGLNKNQSQSQDALVLEDVEKKKKKSGTKKDVPKSWLMKALFKTFYMVLLKSFLLKLVNDIFTFVSPQLLKLLISFASDRDTYLWIGYLCAILLFTAALIQSFCLQCYFQLCFKLGVKVRTAIMASVYKKALTLSNLARKEYTVGETVNLMSVDAQKLMDVTNFMHMLWSSVLQIVLSIFFLWRELGPSVLAGVGVMVLVIPINAILSTKSKTIQVKNMKNKDKRLKIMNEILSGIKILKYFAWEPSFRDQVQNLRKKELKNLLAFSQLQCVVIFVFQLTPVLVSVVTFSVYVLVDSNNILDAQKAFTSITLFNILRFPLSMLPMMISSMLQASVSTERLEKYLGGDDLDTSAIRHDCNFDKAMQFSEASFTWEHDSEATVRDVNLDIMAGQLVAVIGPVGSGKSSLISAMLGEMENVHGHITIKGTTAYVPQQSWIQNGTIKDNILFGTEFNEKRYQQVLEACALLPDLEMLPGGDLAEIGEKGINLSGGQKQRISLARATYQNLDIYLLDDPLSAVDAHVGKHIFNKVLGPNGLLKGKTRLLVTHSMHFLPQVDEIVVLGNGTIVEKGSYSALLAKKGEFAKNLKTFLRHTGPEEEATVHDGSEEEDDDYGLISSVEEIPEDAASITMRRENSFRRTLSRSSRSNGRHLKSLRNSLKTRNVNSLKEDEELVKGQKLIKKEFIETGKVKFSIYLEYLQAIGLFSIFFIILAFVMNSVAFIGSNLWLSAWTSDSKIFNSTDYPASQRDMRVGVYGALGLAQGIFVFIAHFWSAFGFVHASNILHKQLLNNILRAPMRFFDTTPTGRIVNRFAGDISTVDDTLPQSLRSWITCFLGIISTLVMICMATPVFTIIVIPLGIIYVSVQMFYVSTSRQLRRLDSVTRSPIYSHFSETVSGLPVIRAFEHQQRFLKHNEVRIDTNQKCVFSWITSNRWLAIRLELVGNLTVFFSALMMVIYRDTLSGDTVGFVLSNALNITQTLNWLVRMTSEIETNIVAVERITEYTKVENEAPWVTDKRPPPDWPSKGKIQFNNYQVRYRPELDLVLRGITCDIGSMEKIGVVGRTGAGKSSLTNCLFRILEAAGGQIIIDGVDIASIGLHDLREKLTIIPQDPILFSGSLRMNLDPFNNYSDEEIWKALELAHLKSFVASLQLGLSHEVTEAGGNLSIGQRQLLCLGRALLRKSKILVLDEATAAVDLETDNLIQTTIQNEFAHCTVITIAHRLHTIMDSDKVMVLDNGKIIECGSPEELLQIPGPFYFMAKEAGIENVNSTKF
Km [7]: 0.26 µM

Reference: ChEMBL document CHEMBL2073997, “Effect of multidrug resistance-reversing agents on transporting activity of human canalicular multispecific organic anion transporter” (Mol Pharmacol, 1999)
